Assay results reported in patent US6905839B2, “In vivo phenotyping for human cytochrome P450 3A activity” (priority 2002, dated 2005).

How the values were obtained:
CYP3A [1] = settings: male, human, in vivo
Method: The subject was not receiving any medication. […] Urine samples were obtained at a timed period (0-2, 2-4, 4-6, 6-8, 8-10, and 10-12) and the volume of the urine samples was noted. The recommended frequency of blood sampling is at least one time during a 2-hour urine collection. Urinary concentrations of cortisol and 6β-hydroxycortisol and plasma concentrations of cortisol were determined by HPLC and GC-MS, respectively. “The endogenous metabolic clearance (CLm(6β)-endo)” was calculated by Equation 4.
c) The fractional metabolic clearance for the 6β-hydroxylation of endogenous cortisol (CLm(6β)) is expressed as the amount of urinary excreted 6β-hydroxycortisol (X(6β)) divided by the area under the concentration-time curve of cortisol (AUC(F)); that is, CLm(6β)=X(6β)/AUC(F).

CYP3A [2] = settings: pretreatment with 500-mg of clarithromycin twice a day for 7 days; cited from earlier work

CC[C@H]1OC(=O)[C@H](C)[C@@H](O[C@H]2C[C@@](C)(OC)[C@@H](O)[C@H](C)O2)[C@H](C)[C@@H](O[C@@H]2O[C@H](C)C[C@H](N(C)C)[C@H]2O)[C@](C)(OC)C[C@@H](C)C(=O)[C@H](C)[C@@H](O)[C@]1(C)O [clarithromycin]
variation of CLm(6β)-endo values during treatment (CYP3A [1]): 1.2 fold | midazolam sleep time (CYP3A [2]): doubling | reduction in the systemic clearance of midazolam (CYP3A [2]): 64%
